The target of assay [1] is T1, AT1R-CXCR2 heteromer (Homo sapiens, UniProt P25025+P30556).
T1 sequence (P25025 1-360): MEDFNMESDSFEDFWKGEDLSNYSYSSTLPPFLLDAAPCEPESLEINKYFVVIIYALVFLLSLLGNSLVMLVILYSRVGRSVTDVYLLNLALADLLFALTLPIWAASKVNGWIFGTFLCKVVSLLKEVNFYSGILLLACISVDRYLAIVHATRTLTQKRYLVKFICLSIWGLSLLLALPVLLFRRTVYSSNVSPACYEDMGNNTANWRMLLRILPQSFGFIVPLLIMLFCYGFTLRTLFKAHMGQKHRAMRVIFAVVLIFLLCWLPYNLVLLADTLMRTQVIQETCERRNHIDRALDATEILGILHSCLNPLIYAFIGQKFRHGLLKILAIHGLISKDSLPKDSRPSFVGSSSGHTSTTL
T1 sequence (P30556 1-359): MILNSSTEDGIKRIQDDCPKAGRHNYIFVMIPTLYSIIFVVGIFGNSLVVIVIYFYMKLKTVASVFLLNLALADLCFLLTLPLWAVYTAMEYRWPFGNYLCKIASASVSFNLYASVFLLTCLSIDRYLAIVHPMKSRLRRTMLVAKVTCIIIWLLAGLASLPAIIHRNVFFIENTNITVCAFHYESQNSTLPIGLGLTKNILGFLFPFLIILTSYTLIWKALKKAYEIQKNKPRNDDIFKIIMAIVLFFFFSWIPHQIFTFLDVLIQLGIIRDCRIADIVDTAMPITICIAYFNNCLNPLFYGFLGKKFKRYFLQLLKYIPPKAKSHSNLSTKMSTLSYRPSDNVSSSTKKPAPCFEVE
In words: BRET trafficking of CXCR2/Rluc8 to Venus/Kras or Venus/Rab markers, presence of HA-AT1R. The assay is classed as cell-based. On the procedure:
(§1) HEK293FT cells were seeded in 6-well plates at a density of approximately 700,000 cells/well and maintained at 37° C., 5% CO2 in Complete Media (DMEM containing 0.3 mg/ml glutamine, 100 IU/ml penicillin and 100 μg/ml streptomycin (Gibco/Thermo Fisher)) supplemented with 10% fetal calf serum (FCS; Bovogen). Transient transfections were carried out 24 h after seeding using FuGene6™ (Promega) according to manufacturer instructions. 24 h post-transfection, cells were washed with PBS, detached using 0.05% trypsin/0.53 mM EDTA, resuspended in HEPES-buffered phenol red free Complete Media containing 5% FCS and added to a poly-L-lysine-coated white 96-well microplate (Greiner Bio-One). 48 h post-transfection, bioluminescence resonance energy transfer (BRET) assays were carried out following pre-incubation of cells with EnduRen™ (Promega) at a final concentration of 30 μM, at 37° C., 5% CO2 for 2 h. BRET measurements were taken at 37° C. using the LUMlstar™ or CLARIOstar™ (BMG Labtech). Filtered light emissions were measured for 1 s in each of the ‘donor wavelength window’ (460-490 nm for LUMlstar™ or 410-490 nm for CLARIOstar™) and ‘acceptor wavelength window’ (520-550 nm for LUMlstar™ or 520-620 nm for CLARIOstar™).
(§2) The BRET signal observed between interacting proteins is normalized by subtracting the background BRET ratio. This can be done in one of two ways (see Pfleger et al. (2006) Cell Signal 18:1664-1670; Pfleger et al. (2006) Nat Protoc 1:336-344): 1) the ratio of the 520-550 nm or 520-620 nm emission over the 460-490 nm or 410-490 nm emission for a cell sample containing only the donor construct is subtracted from the same ratio for a sample containing the interacting acceptor and donor fusion proteins; 2) the ratio of the 520-550 nm or 520-620 nm emission over the 460-490 nm or 410-490 nm emission for a cell sample treated with vehicle is subtracted from the same ratio for a second aliquot of the same cell sample treated with ligand. In the following examples, the second calculation will be used and the signal is described as ligand-induced BRET′. Furthermore, for data shown in FIGS. 4 to 20, all data points in a given set are corrected relative to the final data point prior to agonist treatment, which is fixed to zero. In keys on FIGS. 7 to 20, “>” means “followed by after 50 minutes”, with agonists added at time zero on the x-axes.
(§3) The Receptor-Heteromer Investigation Technology (Receptor-HIT) is an assay configuration that provides insights into receptor complexes (Ayoub et al. (2015) PLoS One 10(3):e0119803). It is also known as GPCR-HIT when assessing GPCRs. It is an assay configuration whereby one receptor (eg. CXCR2) is labelled with one component (eg. Renilla luciferase variant Rluc8) of a proximity-based reporter system (eg. BRET), the complementary component of which (eg. Venus yellow fluorescent protein) is fused to a receptor interacting partner (eg. mGsi).
(§4) Referring now to FIG. 3 (published in Tiulpakov et al (2016) Mol. Endocrinol. 30, 889-904), the proximity of Rluc8-tagged receptors to Venus-tagged Kras plasma membrane marker, or Venus-tagged Rabs specific for distinct subcellular locations, is monitored in live cells and in real-time using BRET. The Rab markers are: Venus/Rab5 (5) for early endosomes; Venus/Rab4 (4) for early endosome recycling; Venus/Rab11a (11) for recycling endosomes; Venus/Rab7 (7) for late endosomes/lysosomes; Venus/Rab9 (9) for late endosome trafficking to the trans-Golgi network; Venus/Rab1 (1) for endoplasmic reticulum trafficking to the cis-Golgi; Venus/Rab6 (6) for Golgi apparatus and trans-Golgi network; or Venus/Rab8 (8) for trans-Golgi network to plasma membrane.
In general terms: In BRET a luciferase serves as donor, and the signal depends on an acceptor being close.

Assay [2] concerns the target T2, AT1R-CXCR2 heteromer (Homo sapiens, UniProt P25025+P30556).
T2 sequence (P30556 1-359): T1 sequence (P30556 1-359)
T2 sequence (P25025 1-360): T1 sequence (P25025 1-360)
Kind of assay: BRET trafficking of AT1R/Rluc8 to Venus/Kras or Venus/Rab markers, presence of unlabelled CXCR2. The assay is classed as cell-based. On the procedure:
as §1, §2, §3, §4

This note sets out measurements from patent publication US20240009191A1, “METHOD AND COMPOSITION FOR THE TREATMENT OF DISEASE” (DIMERIX BIOSCIENCE PTY LTD, priority 2019, published 2024).

Entries after “also recorded” stand apart in the source; their conditions may differ.

Consider Angiotensin II [AngII], for which, at AT1R-CXCR2 heteromer [1], the “proximity of CXCR2/Rluc8 to Venus/Kras (BRET)” value was “increased proximity”, the “proximity of CXCR2/Rluc8 to Venus/Rab1 (BRET)” value was “barely any effect”, the “proximity of CXCR2/Rluc8 to Venus/Rab4 (BRET)” value was “very small increase” and the “proximity of CXCR2/Rluc8 to Venus/Rab5 (BRET)” value is listed as “very small increase”. For the same substance, at AT1R-CXCR2 heteromer [1], the “proximity of CXCR2/Rluc8 to Venus/Rab6 (BRET)” value was “small increase”, the “proximity of CXCR2/Rluc8 to Venus/Rab7 (BRET)” value is listed as “barely any effect”, the “proximity of CXCR2/Rluc8 to Venus/Rab8 (BRET)” value was “clear increase” and the “proximity of CXCR2/Rluc8 to Venus/Rab9 (BRET)” value was “small increase”. Moreover, the “proximity of CXCR2/Rluc8 to Venus/Rab11a (BRET)” value at AT1R-CXCR2 heteromer [1] is “barely any effect”. Also, on AT1R-CXCR2 heteromer [2], the “proximity of AT1R/Rluc8 to Venus/Kras (BRET)” value is “marked reduction; also recorded: does not result in a notable increase”, the “proximity of AT1R/Rluc8 to Venus/Rab1 (BRET)” value was “increase”, the “proximity of AT1R/Rluc8 to Venus/Rab4 (BRET)” value is “increase” and the “proximity of AT1R/Rluc8 to Venus/Rab5 (BRET)” value is recorded as “substantial increase”. In addition, at AT1R-CXCR2 heteromer [2], the “proximity of AT1R/Rluc8 to Venus/Rab7 (BRET)” value is listed as “increase”, the “proximity of AT1R/Rluc8 to Venus/Rab8 (BRET)” value is reported as “less of an effect”, the “proximity of AT1R/Rluc8 to Venus/Rab9 (BRET)” value was “increase” and the “proximity of AT1R/Rluc8 to Venus/Rab11a (BRET)” value is “substantial increase”.
